For orientation: MIC50 means an inhibitory concentration at the 50% level, which refers to growth in some studies and to a panel of isolates in others. Read a low MIC50 as greater potency. For orientation: MIC90 means the lowest concentration that inhibits either 90% of growth or 90% of the strains tested, depending on the study. A low value points to higher susceptibility.

Twelve compounds from ChEMBL document CHEMBL1128873, “The synthesis and antibacterial activity of 2-carbolinyl-carbapenems: potent anti-MRSA/MRCNS agents” (1995) can be followed below.

Holding throughout (type): functional
Assay [1] deals with Staphylococcus aureus. The assay is described as follows: In vitro antibacterial activity against Methicillin-resistant Staphylococcus aureus (MRSA) by broth microtube dilution method; value ranges from 0.5-4.
The species entered for a further assay is Sus scrofa. Briefly: DHP-I (porcine) susceptibility with respect to imipenem.
A further assay has as its system Klebsiella sp. Briefly: In vitro antibacterial against Klebsiella species. by agar disc diffusion assay method with respect to imipenem. In general terms: A growth-free zone around the sample is the usual read-out of agar diffusion tests.
Assay [2] concerns Staphylococcus aureus. The assay is described as follows: In vitro antibacterial activity against Methicillin-resistant Staphylococcus aureus (MRSA) by agar disc diffusion assay method with respect to imipenem.
For a further assay, the system named is Pseudomonas aeruginosa. Briefly: In vitro antibacterial against Pseudomonas aeruginosa by agar disc diffusion assay method.
In assay [3] the test system is Staphylococcus aureus. Briefly: In vitro antibacterial activity against Methicillin-susceptible Staphylococcus aureus (MSSA) by agar disc diffusion assay method with respect to imipenem.
The next assay has as its system Proteus. Briefly: In vitro antibacterial against Proteus species. by agar disc diffusion assay method with respect to imipenem.
The next assay relates to Enterobacter sp. Briefly: In vitro antibacterial against Enterobacter species. by agar disc diffusion assay method with respect to imipenem.
The test system of assay [4] is Staphylococcus sp. Briefly: In vitro antibacterial activity against Methicillin-resistant coagulase negative Staphylococci (MRCNS) by broth microtube dilution method; value ranges from 1-4.
The subject of the next assay is Serratia. The assay is described as follows: In vitro antibacterial against Serratia species. by agar disc diffusion assay method with respect to imipenem.
For assay [5], the system named is Staphylococcus sp. The assay is described as follows: In vitro antibacterial activity against Methicillin-resistant coagulase negative Staphylococci (MRCNS) by agar disc diffusion assay method with respect to imipenem.
A further assay relates to Enterococcus sp. Briefly: In vitro antibacterial against Enterococcus species. by agar disc diffusion assay method with respect to imipenem.
The test system of the next assay is Escherichia coli. The assay is described as follows: In vitro antibacterial against Escherichia coli by agar disc diffusion assay method with respect to imipenem.
Assay [6] has as its system Staphylococcus aureus. Briefly: In vitro antibacterial activity against Methicillin-resistant Staphylococcus aureus (MRSA) by broth microtube dilution method; value ranges from 0.5-8.
The subject of assay [7] is Staphylococcus aureus. Briefly: In vitro antibacterial activity against Methicillin-resistant Staphylococcus aureus (MRSA) by broth microtube dilution method; value ranges from 1-8.
Assay [8] deals with Staphylococcus sp. Briefly: In vitro antibacterial activity against Methicillin-resistant coagulase negative Staphylococci (MRCNS) by broth microtube dilution method; value ranges from 2-16.
The test system of assay [9] is Staphylococcus aureus. The assay is described as follows: In vitro antibacterial activity against Methicillin-resistant Staphylococcus aureus (MRSA) by broth microtube dilution method; value ranges from 1-16.
In assay [10] the test system is Staphylococcus sp. Briefly: In vitro antibacterial activity against Methicillin-resistant coagulase negative Staphylococci (MRCNS) by broth microtube dilution method; value ranges from 4-32.

≈ marks a conversion by molar mass, not a printed value.

Turning to `C[C@@H]([O-])[C@H]1C(=O)N2C(C(=O)[O-])=C(c3ccc4c(c3)c3ccc[n+](C)c3n4C)C[C@H]12.[Na+]`, the MIC50 with Staphylococcus aureus [1] came out at 2 µg/mL; against Staphylococcus sp. [4] it was 4 µg/mL. Also, the MIC90 against Staphylococcus aureus [1] and against Staphylococcus sp. [4] was 4 µg/mL throughout. This compound also displayed a Relative susceptibility in the assay listed under Sus scrofa of 0.05. The Relative potency is given as 3 fold in the assay on Klebsiella sp.; 30 fold in the assay on Staphylococcus aureus [2]; 0.057 fold with Pseudomonas aeruginosa; 0.49 fold with Staphylococcus aureus [3]; 26 fold with Proteus; 2.8 fold in the assay with Enterobacter sp.. Besides, the Relative potency worked out at 4.5 fold in the assay with Serratia, 313 fold in the assay with Staphylococcus sp. [5], 3.9 fold in the assay with Enterococcus sp. and 4.8 fold in the assay on Escherichia coli.
Compound `CC[n+]1cccc2c3cc(C4=C(C(=O)[O-])N5C(=O)[C@H]([C@@H](C)[O-])[C@H]5C4)ccc3n(C)c21.[Na+]` displayed a Relative susceptibility in the assay filed under Sus scrofa of 0.01. Moreover, the Relative potency with Klebsiella sp. came to 1.4 fold; in the assay with Staphylococcus aureus [2] it was 21 fold; in the assay on Pseudomonas aeruginosa, 0.035 fold; with Staphylococcus aureus [3] it was 0.43 fold; in the assay on Proteus, 11 fold; in the assay with Enterobacter sp., 1.4 fold. Moreover, the Relative potency with Serratia was 3.2 fold; with Staphylococcus sp. [5] it was 277 fold; in the assay with Enterococcus sp. it was 3.7 fold; with Escherichia coli, 2.8 fold.
For the compound `C[C@@H](O)[C@H]1C(=O)N2C(C(=O)O)=C(c3ccc4c(c3)c3ccncc3n4C)C[C@H]12`, the Relative susceptibility in the assay filed under Sus scrofa was determined as 0.034.
Compound `C[C@@H]([O-])[C@H]1C(=O)N2C(C(=O)[O-])=C(c3ccc4[nH]c5c[n+](C)ccc5c4c3)C[C@H]12.[Na+]` showed a Relative susceptibility in the assay listed under Sus scrofa of 0.027. Further, the Relative potency with Klebsiella sp. was found to be 2.8 fold; in the assay with Staphylococcus aureus [2] it was 28 fold; in the assay on Pseudomonas aeruginosa, 0.027 fold; in the assay with Staphylococcus aureus [3] it was 0.42 fold; with Proteus, 25 fold; in the assay on Enterobacter sp., 7.7 fold. The Relative potency in the assay with Serratia worked out at 12 fold; in the assay on Staphylococcus sp. [5] it was 166 fold; in the assay with Enterococcus sp., 2.8 fold; in the assay on Escherichia coli, 9.2 fold. In addition, the values for the MIC50 with Staphylococcus sp. [4] and in the assay with Staphylococcus aureus [6] were 4 µg/mL and 2 µg/mL, respectively. Moreover, the MIC90 in the assay with Staphylococcus sp. [4] and in the assay with Staphylococcus aureus [6] was 4 µg/mL throughout.
In the assay filed under Sus scrofa, `C[C@@H](O)[C@H]1C(=O)N2C(C(=O)[O-])=C(c3ccc4c(c3)c3ncccc3n4C)C[C@H]12.[Na+]` returned a Relative susceptibility of 1.8. For the same compound, the Relative potency is given as 0.16 fold with Klebsiella sp.; 5.3 fold in the assay with Staphylococcus aureus [2]; 0.006 fold with Pseudomonas aeruginosa; 0.2 fold in the assay with Staphylococcus aureus [3]; 6.6 fold with Proteus; 0.065 fold in the assay on Enterobacter sp.. The Relative potency came to 0.37 fold with Serratia, 4.5 fold in the assay on Staphylococcus sp. [5], 1.2 fold in the assay with Enterococcus sp. and 0.31 fold in the assay with Escherichia coli.
`C[C@@H]([O-])[C@H]1C(=O)N2C(C(=O)[O-])=C(c3ccc4c(c3)c3c(ccc[n+]3C)n4C)C[C@H]12.[Na+]`: the MIC50 against Staphylococcus aureus [7] amounted to 4 µg/mL; in the assay with Staphylococcus sp. [8] it was 8 µg/mL. Besides, the MIC90 worked out at 8 µg/mL in the assay with Staphylococcus aureus [7] and 16 µg/mL with Staphylococcus sp. [8]. Further, the Relative susceptibility in the assay filed under Sus scrofa was 0. For the same compound, the Relative potency in the assay with Klebsiella sp. worked out at 1.1 fold; with Staphylococcus aureus [2], 12 fold; in the assay on Pseudomonas aeruginosa it was 0.018 fold; with Staphylococcus aureus [3], 0.58 fold; in the assay on Proteus, 9.3 fold; in the assay on Enterobacter sp., 1.2 fold. In addition, the Relative potency in the assay on Serratia is reported as 2.2 fold; in the assay with Staphylococcus sp. [5], 27 fold; in the assay on Enterococcus sp. it was 2.5 fold; in the assay on Escherichia coli, 1.3 fold.
With `C[C@@H](O)[C@H]1C(=O)N2C(C(=O)[O-])=C(c3ccc4c5cccnc5n(C)c4c3)C[C@H]12.[Na+]`, the Relative susceptibility in the assay listed under Sus scrofa amounted to 0.02. The Relative potency with Klebsiella sp. is listed as 0.054 fold; in the assay on Staphylococcus aureus [2], 4.9 fold; in the assay on Pseudomonas aeruginosa it was 0.007 fold; with Staphylococcus aureus [3], 0.15 fold; in the assay with Proteus, 0.59 fold; in the assay with Enterobacter sp. it was 0.041 fold. Moreover, the Relative potency in the assay on Serratia worked out at 0.051 fold; in the assay with Staphylococcus sp. [5] it was 4.1 fold; with Enterococcus sp. it was 1.5 fold; with Escherichia coli, 0.15 fold.
The compound `C[C@@H](O)[C@H]1C(=O)N2C(C(=O)[O-])=C(c3ccc4c(c3)c3cnccc3n4C)C[C@H]12.[Na+]` yielded a Relative susceptibility in the assay filed under Sus scrofa of 0. Besides, the Relative potency came out at 0.94 fold with Klebsiella sp.; 11 fold in the assay with Staphylococcus aureus [2]; 0.018 fold in the assay on Pseudomonas aeruginosa; 0.56 fold in the assay on Staphylococcus aureus [3]; 20 fold in the assay on Proteus; 0.98 fold in the assay with Enterobacter sp.. For the same compound, the Relative potency in the assay with Serratia came out at 4.8 fold; in the assay on Staphylococcus sp. [5], 40 fold; in the assay with Enterococcus sp., 4 fold; in the assay on Escherichia coli, 1.8 fold. The MIC50 came to 4 µg/mL in the assay with Staphylococcus aureus [6] and 8 µg/mL against Staphylococcus sp. [8]. Besides, the MIC90 was found to be 8 µg/mL against Staphylococcus aureus [6] and 16 µg/mL with Staphylococcus sp. [8].
In turn, `C[C@@H](O)[C@H]1C(=O)N2C(C(=O)[O-])=C(c3cccc4c3c3cccnc3n4C)C[C@H]12.[Na+]` had a Relative susceptibility in the assay filed under Sus scrofa of 0. The Relative potency in the assay on Klebsiella sp. is 0.08 fold; in the assay with Staphylococcus aureus [2], 13 fold; in the assay on Pseudomonas aeruginosa, 0.009 fold; in the assay on Staphylococcus aureus [3], 0.26 fold; in the assay with Proteus, 1.2 fold; with Enterobacter sp., 0.092 fold. Besides, the Relative potency worked out at 0.38 fold in the assay with Serratia, 12 fold in the assay with Staphylococcus sp. [5], 1.4 fold in the assay with Enterococcus sp. and 0.25 fold in the assay on Escherichia coli. Moreover, the figures for the MIC50 against Staphylococcus aureus [9] and with Staphylococcus sp. [8] were 4 µg/mL and 8 µg/mL, respectively. Besides, the MIC90 in the assay with Staphylococcus aureus [9] was 8 µg/mL; against Staphylococcus sp. [8], 16 µg/mL.
For `C[C@@H](O)[C@H]1C(=O)N2C(C(=O)[O-])=C(c3ccc4c(c3)c3c[n+](C)ccc3n4C)C[C@H]12`, the MIC50 came to 4 µg/mL (≈ 10.2 µM) against Staphylococcus aureus [7] and 8 µg/mL (≈ 20.4 µM) with Staphylococcus sp. [8]. Moreover, the MIC90 in the assay with Staphylococcus aureus [7] was determined as 8 µg/mL (≈ 20.4 µM); in the assay with Staphylococcus sp. [8], 16 µg/mL (≈ 40.9 µM). The same compound came in with a Relative susceptibility in the assay listed under Sus scrofa of 0.007. Besides, the Relative potency in the assay on Klebsiella sp. amounted to 1.2 fold; with Staphylococcus aureus [2], 14 fold; with Pseudomonas aeruginosa, 0.026 fold; in the assay with Staphylococcus aureus [3], 0.59 fold; with Proteus, 14 fold; in the assay with Enterobacter sp. it was 0.94 fold. Further, the Relative potency in the assay on Serratia is listed as 2.1 fold; with Staphylococcus sp. [5] it was 40 fold; in the assay with Enterococcus sp. it was 3.7 fold; with Escherichia coli it was 1.5 fold.
As to `C[C@@H]([O-])[C@H]1C(=O)N2C(C(=O)[O-])=C(c3ccc4c(c3)c3cc[n+](C)cc3n4C)C[C@H]12.[Na+]`, the MIC50 against Staphylococcus aureus [7] is 2 µg/mL; against Staphylococcus sp. [4], 4 µg/mL. The MIC90 against Staphylococcus aureus [7] and against Staphylococcus sp. [4] was 4 µg/mL throughout. In the assay listed under Sus scrofa, this compound displayed a Relative susceptibility of 0.01. The Relative potency in the assay on Klebsiella sp. worked out at 2.5 fold; in the assay on Staphylococcus aureus [2], 23 fold; in the assay with Pseudomonas aeruginosa, 0.035 fold; in the assay with Staphylococcus aureus [3] it was 0.38 fold; with Proteus, 21 fold; in the assay on Enterobacter sp., 2.5 fold. Besides, the Relative potency in the assay on Serratia was 3.6 fold; in the assay with Staphylococcus sp. [5] it was 287 fold; in the assay on Enterococcus sp. it was 3.8 fold; in the assay with Escherichia coli, 3.8 fold.
In the case of `C[C@@H](O)[C@H]1C(=O)N2C(C(=O)[O-])=C(c3ccc4c(c3)c3cccnc3n4C)C[C@H]12.[Na+]`, the Relative susceptibility in the assay filed under Sus scrofa was 0.06. The Relative potency was 0.059 fold with Klebsiella sp.; 8 fold with Staphylococcus aureus [2]; 0.007 fold in the assay on Pseudomonas aeruginosa; 0.17 fold in the assay with Staphylococcus aureus [3]; 1.4 fold in the assay on Proteus; 0.034 fold in the assay with Enterobacter sp.. The Relative potency in the assay on Serratia worked out at 0.1 fold; in the assay on Staphylococcus sp. [5], 8.6 fold; in the assay on Enterococcus sp., 2.1 fold; in the assay with Escherichia coli it was 0.12 fold. For the same compound, the MIC50 was found to be 4 µg/mL in the assay on Staphylococcus aureus [9] and 8 µg/mL in the assay on Staphylococcus sp. [10]. The MIC90 was found to be 8 µg/mL against Staphylococcus aureus [9] and 16 µg/mL in the assay on Staphylococcus sp. [10].
